Measured values taken from article PMC6150246, “Design, Synthesis and Preliminary Biological Evaluation of Novel Benzyl Sulfoxide 2-Indolinone Derivatives as Anticancer Agents” (Molecules : A Journal of Synthetic Chemistry and Natural …, 2017).

Assays:
[1] = tested on: human liver carcinoma cell line HepG2; experiment: MTS cytotoxicity assay, HepG2; format: cell-based
Description: (§1) To investigate the relationship between anticancer activity and tyrosine kinase inhibitory activity, these compounds were further evaluated for in vitro cytotoxicity against five cancer cell lines (human cervical carcinoma cell line HeLa, human breast carcinoma cell line MCF-7, human liver carcinoma cell line HepG2, human tongue carcinoma cell line SCC-15, and human lung carcinoma A549) using MTS assay. Indo 5 was also used as a reference compound.
(§2) The five types of human cancer cell lines (HeLa, HepG2, MCF-7, SCC-15, and A549) were cultured aseptically using Dulbecco’s modified Eagle’s medium (DMEM) supplemented with 10% (v/v) fetal bovine serum (FBS) and penicillin (100 units mL^−1)/streptomycin ([…]), at pH 7.2 and 5% CO2 humidified atmosphere at 37 °C. After attaining 80% confluence, the cells were trypsinized with 0.25 trypsin–EDTA and diluted with media to a fixed number of cells.
(§3) Cytotoxic activity was assessed using the standard MTS method by using triplicate assay. The cells were seeded into 96-well plates containing the medium at the density of 4000–6000 cells/mL (100 μL/well). The compounds were dissolved in DMSO to the concentration of 100 mM and diluted in a culture medium to the concentrations needed. After 24 h, the cultured cells were treated with concentrations of synthesized compounds (3.125 μM to 100 μM for tumor cells) for 48 h. After 48 h of incubation, the supernatant was replaced by fresh medium (100 μL/well) and 10 μL MTS reagent ([3-(4,5-dimethylthiazol-2-yl)-5-(3-carboxymethoxyphenyl)-2-(4-sulfophenyl)-2H-tetrazolium, inner salt]) was added to each well. The plate was further incubated for 3 h at 37 °C in 5% CO2. The optical absorbance in individual wells was determined at 492 nm using a microplate reader. The inhibition rates were calculated by the following formula: Inhibition rate (%) = (ODnegative control − ODsample)/(ODnegative control − ODblank) × 100%
(§4) IC50 was calculated using GraphPad Prism Software (GraphPad Prism 5, La Jolla, CA, USA). For each concentration, at least three wells were performed to calculate the average parameter.

[2] = tested on: human breast carcinoma cell line MCF-7; experiment: MTS cytotoxicity assay, MCF-7; format: cell-based
Description: as §1, §2, §3, §4

tyrosine kinase = experiment: Tyrosine kinase inhibitory activity assay (self-made ELISA kit); format: biochemical; settings: for IC50: tyrosine kinase tissue extract, 37 °C 30 min; for tyrosine kinase inhibitory activity, in words: Indo 5 as reference
Procedure: The 16 designed compounds were first evaluated for tyrosine kinase inhibitory activity using ELISA assay. Indo 5 was used as a reference compound. The kit was self-made and is a very effective and economical method for preliminary tyrosine kinase inhibitory activity evaluation.
The tyrosine kinase inhibitory activity assay was performed as described in the literature. Details of the experimental procedures are presented in Supplementary Materials associated with this article. The IC50 was calculated using GraphPad Prism Software (GraphPad Prism 5, La Jolla, CA, USA). For each concentration, at least three wells were performed to calculate the average parameter.
100μL to each well. The plate was covered with its lid, and incubated at 4℃ overnight (10-12 hours). Then it was washed with 200μL elution buffer once, and dried at 37℃ for 2 h. After that, it was washed with 10mM PBS once, dried at room temperature, and then stored at 4℃ […]
2.1.5. Groups: Blank control: 60μL 1×tyrosine kinase buffer + 50μL 1×tyrosine kinase buffer containing ATP; Negative control: 10μL 1×tyrosine kinase buffer + 50μL 1×tyrosine kinase buffer containing tissue extract + 50μL 1×tyrosine kinase buffer containing ATP; Positive control: 10μL 1×tyrosine kinase buffer containing L029 + 50μL 1×tyrosine kinase buffer containing tissue extract + 50μL 1×tyrosine kinase buffer containing ATP; Vehicle control: 10μL 1×tyrosine kinase buffer containing DMSO + 50μL 1×tyrosine kinase buffer containing tissue extract + 50μL 1×tyrosine kinase buffer containing ATP; Compounds to be screened: 10μL 1×tyrosine kinase buffer containing compounds to be tested + 50μL 1× tyrosine kinase buffer containing tissue extract + 50μL 1×tyrosine kinase buffer containing ATP. (First, L029 and the compounds were allowed to interact with the tyrosine kinase tissue extract at room temperature for 10 min in advance, and did the same to the Blank control and the Vehicle control, then 50μL 1×tyrosine kinase buffer containing ATP was added to […]
2.1.6. Tyrosine kinase inhibitory activity assay: 1×tyrosine kinase buffer was prepared by evenly mixing 1 mL 10× tyrosine kinase buffer with 9 mL DDW. The tissue extract was diluted with 1×tyrosine kinase buffer appropriately, mixed with it gently and evenly, and placed on ice. ATP stock solution was mixed with 1×tyrosine kinase buffer at the final concentration of 3mM , and placed on ice. The microplate was added in respective wells with the groups formulated as above, covered with the lid, and incubated at 37℃ for 30 min. The microplate was washed with 200μL elution buffer and tapped until the residual buffer was removed, and this procedure was repeated for five times. To each well, 100μL antibody diluent (antibody elution buffer diluted at a ratio of 1:2000) was added. The microplate was covered with the lid, and incubated at room temperature for 30 min. OPD solution was prepared by addition of 4 mg OPD into a mixture of 4.86 mL 0.1 mol/L citric acid solution and 5.14 mL 0.2 mol/L Na2HPO4 solution, followed by addition of 50μL 30% H202 to allow for complete dissolution, and then was protected from light. The antibody solution was […]
removed. The microplate was washed with 200μL elution buffer and tapped until the residual buffer was removed, and this procedure was repeated for five times. 100μL freshly prepared OPD was added, and reacted at room temperature light tight for precisely 7 min. Negative […]
100μL 2.5 N H2SO4 was added to terminate the reaction. OD
2.1.7. Sample screening: Samples were screened preliminarily by using triplicate assay. The effect of the samples on tyrosine kinase inhibitory activity was tested, and the inhibition rate was calculated. Inhibition rate (%)=(ODnegative control – ODsample) / (ODnegative control* – ODblank) × 100%; *While calculating inhibition rate of positive drugs, ODnegative control in the equation was replaced with ODvehicle control to exclude the influence of DMSO on tyrosine kinase activity. […]
2. S. Praveen Kumar, Jiri Gut, Rita C. […]

[3] = tested on: human cervical carcinoma cell line HeLa; experiment: MTS cytotoxicity assay, HeLa; format: cell-based; settings: for IC50: 48 h treatment; for activity against the HeLa cell line, in words: Indo 5 as reference
Description: as §1, §2, §3, §4

[4] = tested on: human lung carcinoma A549; experiment: MTS cytotoxicity assay, A549; format: cell-based
Description: as §1, §2, §3, §4

[5] = tested on: human tongue carcinoma cell line SCC-15; experiment: MTS cytotoxicity assay, SCC-15; format: cell-based
Description: as §1, §2, §3, §4

[6] = Homo sapiens, HepG2, 48 h treatment
[7] = Homo sapiens, MCF7, 48 h treatment
[8] = Homo sapiens, A549, 48 h treatment
[9] = Homo sapiens, SCC-15, 48 h treatment

Row | SMILES | melting point [°C] | IC50 (tyrosine kinase) [µM] | tyrosine kinase inhibitory activity, in words (tyrosine kinase) | IC50 [1, 6] [µM] | activity against the MCF-7 cell line, in words [2] | IC50 [2, 7] [µM] | IC50 ([3]; Homo sapiens, HeLa) [µM] | activity against the HeLa cell line, in words [3] | IC50 [4, 8] [µM] | IC50 [5, 9] [µM] | activity against the HepG2 cell line, in words [1] | IC50 ([1]; 48 h treatment) [µM] | IC50 ([2]; 48 h treatment) [µM] | IC50 [3] [µM] | IC50 ([4]; 48 h treatment) [µM] | IC50 ([5]; 48 h treatment) [µM]
1 | O=C1Nc2ccccc2/C1=C/[S+]([O-])Cc1ccccc1 (stereo not drawn) [Compound 6a, (Z)-3-((Benzylsulfinyl)methylene)indolin-2-one] | 191 to 192 | 3.16 ± 0.31 |  | 52.1 ± 0.94 | good antitumor activity | 35.2 ± 1.16 | 11.2 ± 0.42 | stronger activity than Indo 5 | > 100 | 58.9 ± 0.75 |  |  |  |  |  | 
2 | O=C1Nc2ccccc2/C1=C/[S+]([O-])Cc1ccccc1F (stereo not drawn) [Compound 6b, (Z)-3-(((2-Fluorobenzyl)sulfinyl)methylene)indolin-2-one] | 183 to 184 | 3.74 ± 0.19 |  | 47.8 ± 1.47 |  | 49.1 ± 1.08 | 14 ± 0.27 | stronger activity than Indo 5 | > 100 | > 100 |  |  |  |  |  | 
3 | O=C1Nc2ccccc2/C1=C/[S+]([O-])Cc1cccc(F)c1 (stereo not drawn) [Compound 6c, (Z)-3-(((3-Fluorobenzyl)sulfinyl)methylene)indolin-2-one] | 186 to 187 | 9.32 ± 0.66 |  | 42 ± 0.7 | good antitumor activity | 31.5 ± 0.82 | 24.4 ± 0.54 |  | > 100 | 49.9 ± 0.93 |  |  |  |  |  | 
4 | O=C1Nc2ccccc2/C1=C/[S+]([O-])Cc1ccc(F)cc1 (stereo not drawn) [Compound 6d, (Z)-3-(((4-Fluorobenzyl)sulfinyl)methylene)indolin-2-one] | 193 to 194 | 9.3 ± 0.47 |  | 36.2 ± 0.53 |  | 49.12 ± 0.29 | 25 ± 0.68 |  | 90.3 ± 2.14 | 65 ± 1.47 | considerable cytotoxic activity |  |  |  |  | 
5 | O=C1Nc2ccccc2/C1=C/[S+]([O-])Cc1ccccc1Cl (stereo not drawn) [Compound 6e, (Z)-3-(((2-Chlorobenzyl)sulfinyl)methylene)indolin-2-one] | 202 to 203 | 5.09 ± 0.12 |  | 96.83 ± 0.95 |  | > 100 | 70.9 ± 1.17 |  | > 100 | > 100 |  |  |  |  |  | 
6 | O=C1Nc2ccccc2/C1=C/[S+]([O-])Cc1cccc(Cl)c1 (stereo not drawn) [Compound 6f, (Z)-3-(((3-Chlorobenzyl)sulfinyl)methylene)indolin-2-one] | 192 to 194 | 5.96 ± 0.14 |  | 86.5 ± 1.15 |  | 93 ± 1.5 | 60.3 ± 1.98 |  | > 100 | 96.8 ± 3.76 |  |  |  |  |  | 
7 | O=C1Nc2ccccc2/C1=C/[S+]([O-])Cc1ccc(Cl)cc1 (stereo not drawn) [Compound 6g, (Z)-3-(((4-Chlorobenzyl)sulfinyl)methylene)indolin-2-one] | 193 to 195 | 3.3 ± 0.03 |  | 75.35 ± 0.72 |  | 92.6 ± 0.97 | 40.9 ± 0.88 |  | > 100 | > 100 |  |  |  |  |  | 
8 | O=C1Nc2ccccc2/C1=C/[S+]([O-])Cc1ccccc1Br (stereo not drawn) [Compound 6h, (Z)-3-(((2-Bromobenzyl)sulfinyl)methylene)indolin-2-one] | 198 to 199 | 3.52 ± 0.15 |  | 98.3 ± 2.04 |  | > 100 | 79.9 ± 1.57 |  | > 100 | > 100 |  |  |  |  |  | 

Now from value to compound, other results behind:

Row | melting point [°C] | IC50 (tyrosine kinase) [µM] | tyrosine kinase inhibitory activity, in words (tyrosine kinase) | SMILES | IC50 [1, 6] [µM] | activity against the MCF-7 cell line, in words [2] | IC50 [2, 7] [µM] | IC50 ([3]; Homo sapiens, HeLa) [µM] | activity against the HeLa cell line, in words [3] | IC50 [4, 8] [µM] | IC50 [5, 9] [µM] | activity against the HepG2 cell line, in words [1] | IC50 ([1]; 48 h treatment) [µM] | IC50 ([2]; 48 h treatment) [µM] | IC50 [3] [µM] | IC50 ([4]; 48 h treatment) [µM] | IC50 ([5]; 48 h treatment) [µM]
9 | 193 to 194 | 3.32 ± 0.19 |  | O=C1Nc2ccccc2/C1=C/[S+]([O-])Cc1cccc(Br)c1 (stereo not drawn) [Compound 6i, (Z)-3-(((3-Bromobenzyl)sulfinyl)methylene)indolin-2-one] | 71.8 ± 2.18 |  | 75.1 ± 1.93 | 48.42 ± 0.14 |  | 64.9 ± 1.57 | 82.1 ± 3.34 |  |  |  |  |  | 
10 | 181 to 182 | 2.23 ± 0.14 |  | COc1cccc(C[S+]([O-])/C=C2\C(=O)Nc3ccccc32)c1 (stereo not drawn) [Compound 6k, (Z)-3-(((3-Methoxybenzyl)sulfinyl)methylene)indolin-2-one] | 49.4 ± 1.33 |  | 59.1 ± 37 | 22.7 ± 0.64 |  | 62.3 ± 2 | 86.7 ± 5.16 |  |  |  |  |  | 
11 | 198 to 199 | 16.02 ± 0.05 | weak tyrosine inhibitory activity | Cc1ccccc1C[S+]([O-])/C=C1\C(=O)Nc2ccccc21 (stereo not drawn) [Compound 6l, (Z)-3-(((2-Methylbenzyl)sulfinyl)methylene)indolin-2-one] | > 100 |  | 81.6 ± 2.62 | > 100 |  | > 100 | > 100 |  |  |  |  |  | 
12 | 174 to 175 | 3.85 ± 0.09 |  | Cc1cccc(C[S+]([O-])/C=C2\C(=O)Nc3ccccc32)c1 (stereo not drawn) [Compound 6m, (Z)-3-(((3-Methylbenzyl)sulfinyl)methylene)indolin-2-one] | 36 ± 2.13 |  | 41.4 ± 2.2 | 27 ± 1.2 |  | 79.32 ± 0.79 | 50.3 ± 1.51 |  |  |  |  |  | 
13 | 186 to 188 | 4.39 ± 0.23 |  | Cc1ccc(C[S+]([O-])/C=C2\C(=O)Nc3ccccc32)cc1 (stereo not drawn) [Compound 6n, (Z)-3-(((4-Methylbenzyl)sulfinyl)methylene)indolin-2-one] | 59 ± 0.97 |  | 55.1 ± 1.51 | 27.8 ± 0.78 |  | 59.6 ± 0.97 | 90.5 ± 2.32 |  |  |  |  |  | 
14 | 208 to 209 | 7.93 ± 0.2 | weak tyrosine inhibitory activity | O=C1Nc2ccc(Br)cc2/C1=C/[S+]([O-])Cc1ccccc1F (stereo not drawn) [Compound 6p, (Z)-5-Bromo-3-(((2-fluorobenzyl)sulfinyl)methylene)indolin-2-one] | > 100 |  | 76.4 ± 1.5 | 19.8 ± 0.25 |  | > 100 | > 100 |  |  |  |  |  | 
15 |  | 11.6 ± 0.79 |  | Cc1ccccc1NS(=O)(=O)c1ccc2c(c1)/C(=C/c1nc3ccccc3[nH]1)C(=O)N2 [Indo 5, reference compound] |  |  |  |  |  |  |  |  | 22.2 ± 0.41 | 24.2 ± 0.49 | 19.6 ± 0.46 | 29.16 ± 0.29 | 28.2 ± 1.08
